Calls of active or inactive are those of the source.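 How the source made its calls: active means EC50 below 100 µM for activating human gut alkaline phosphatase; inactive means the rest.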
biological target: Intestinal-type alkaline phosphatase (Homo sapiens) (UniProt P09923); assay: potency of intestinal alkaline phosphatase activation – biochemical, luminescence, SAR follow-up (AID 493132); conditions: purified IAP, CDP-Star luminescence, 30 min
Sequence (P09923 whole entry, looked up): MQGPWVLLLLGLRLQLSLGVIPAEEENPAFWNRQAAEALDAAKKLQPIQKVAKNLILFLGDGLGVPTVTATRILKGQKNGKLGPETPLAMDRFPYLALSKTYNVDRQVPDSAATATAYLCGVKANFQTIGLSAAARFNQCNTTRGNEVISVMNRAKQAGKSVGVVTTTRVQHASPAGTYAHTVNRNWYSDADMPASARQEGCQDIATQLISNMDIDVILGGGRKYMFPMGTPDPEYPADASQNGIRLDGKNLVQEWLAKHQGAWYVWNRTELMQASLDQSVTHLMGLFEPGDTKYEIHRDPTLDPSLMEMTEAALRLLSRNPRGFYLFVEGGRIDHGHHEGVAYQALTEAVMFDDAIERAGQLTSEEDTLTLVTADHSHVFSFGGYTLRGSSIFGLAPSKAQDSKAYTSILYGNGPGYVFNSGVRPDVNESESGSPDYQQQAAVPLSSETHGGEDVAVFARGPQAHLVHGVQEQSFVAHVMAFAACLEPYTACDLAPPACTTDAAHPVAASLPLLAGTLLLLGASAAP

Structure (SMILES) | EC50
CCOc1cccc(C=NNC(=O)c2cc(-c3cccn3C)n[nH]2)c1O | 12.5 µM
C/C(=N\NC(=O)c1[nH]nc2c1CCc1ccccc1-2)c1ccccc1O | 8.62 µM
COC(=O)c1ccc(/C=N/NC(=O)C(=O)N/N=C/c2ccc(C(=O)OC)cc2)cc1 | > 100 µM (inactive)
CCOc1cc(/C=N/NC(=O)C(=O)N/N=C/c2ccc(O)c(OCC)c2)ccc1O | > 100 µM (inactive)
Cc1cc(C(=O)N/N=C/c2cc(Br)ccc2O)n[nH]1 | 9.33 µM
CC(=NNC(=O)C(=O)NN=C(C)c1cccc(O)c1)c1cccc(O)c1 | 84.6 µM
COc1ccc(/C=N/NC(=O)C(=O)N/N=C/c2ccc(OC)c(OC)c2)cc1OC | > 100 µM (inactive)
COc1ccc(-c2cc(C(=O)NN=Cc3c(O)ccc4ccccc34)[nH]n2)cc1 | 19.6 µM
O=C(N/N=C/c1ccc2c(c1)OCO2)C(=O)N/N=C/c1ccc2c(c1)OCO2 | > 100 µM (inactive)
CN(C)c1ccc(/C=N/NC(=O)C(=O)N/N=C/c2ccc(N(C)C)cc2)cc1 | > 100 µM (inactive)
Cc1ccc(O)c(C=NNC(=O)c2[nH]ncc2Br)c1 | 18.9 µM
O=C(N/N=C\c1cccc(O)c1)C(=O)N/N=C/c1cccc(O)c1 | 45 µM
Cc1cc(C(=O)NN=Cc2cccc([N+](=O)[O-])c2O)n[nH]1 | 14.6 µM
COc1ccc(OC)c(/C=N/NC(=O)C(=O)N/N=C/c2cc(OC)ccc2OC)c1 | 90.7 µM
CC(=O)Nc1cccc(C(=O)NNC(=O)c2n[nH]c(=O)c3ccccc23)c1 | 9.05 µM
O=C(N/N=C/c1c(O)ccc2ccccc12)c1cc(-c2cccs2)[nH]n1 | 11.1 µM
N#CCOc1ccccc1/C=N/NC(=O)C(=O)N/N=C/c1ccccc1OCC#N | 86.5 µM
O=C(CCN1C(=O)/C(=C/c2ccccc2Cl)SC1=S)NNC(=O)c1ccccc1O | 25.5 µM
Cn1cccc1-c1cc(C(=O)NN=Cc2cc(Br)ccc2O)[nH]n1 | 9.91 µM

Structure (SMILES) | EC50
COc1cc(/C=N\NC(=O)C(=O)N/N=C/c2cc(OC)c(O)c(OC)c2)cc(OC)c1O | 19.2 µM
Cc1ccc(-c2cc(C(=O)NN=Cc3ccccc3O)n[nH]2)o1 | 6.19 µM
CCOc1cccc(C=NNC(=O)c2cc(C3CC3)[nH]n2)c1O | 7.63 µM
O=C(N/N=C/c1cc(Br)ccc1O)c1cc(C2CC2)[nH]n1 | 11.3 µM
O=C(N/N=C/c1ccccc1O)c1cc(C2CC2)[nH]n1 | 10.2 µM
C/C(=N\NC(=O)c1cc(C)[nH]n1)c1ccc2ccccc2c1O | 6.59 µM
CC1C(=O)NN=C1C(=O)NN=Cc1ccc(O)cc1O (stereo unspecified) | 10.7 µM
COc1cccc(C=NNC(=O)c2cc(-c3cccn3C)n[nH]2)c1O | 8.6 µM
CC(C)Oc1ccccc1/C=N/NC(=O)C(=O)N/N=C/c1ccccc1OC(C)C | 36.4 µM
COc1ccc(-c2csc(Nc3cccc4ccccc34)n2)cc1F | > 100 µM (inactive)
O=C(N/N=C\c1ccc2c(c1)OCO2)C(=O)N/N=C/c1ccc2c(c1)OCO2 | > 100 µM (inactive)
COc1cc(/C=N/NC(=O)C(=O)N/N=C/c2ccc(O)c(OC)c2)ccc1O | 27.9 µM
COc1cccc(C=NNC(=O)C2=NNC(=O)C2C)c1O (stereo unspecified) | 8.22 µM
COc1cc(OC)cc(C(=O)NNC(=O)c2nn(C)c(=O)c3ccccc23)c1 | 11.8 µM
CCN(CC)c1ccc(/C=N/NC(=O)C(=O)N/N=C/c2ccc(N(CC)CC)cc2O)c(O)c1 | > 100 µM (inactive)
O=C(N/N=C/c1ccccc1O)c1n[nH]c2c1CCC2 | 8.25 µM
COc1cc(OC)c(OC)cc1/C=N/NC(=O)C(=O)N/N=C/c1cc(OC)c(OC)cc1OC | > 100 µM (inactive)
COc1cc(/C=N/NC(=O)C(=O)N/N=C/c2cc(OC)c(OC)c(OC)c2)cc(OC)c1OC | > 100 µM (inactive)
O=C(NN=Cc1ccc(O)cc1O)C(=O)NN=Cc1ccc(O)cc1O | 6.5 µM

Structure (SMILES) | EC50
O=C(NN=Cc1ccccc1)C(=O)NN=Cc1ccccc1 | 30.7 µM
COc1cccc(C=NNC(=O)C(=O)NN=Cc2cccc(OC)c2OC)c1OC | 30.4 µM
Cc1cc(C(=O)N/N=C\c2cc(C(C)(C)C)ccc2O)n[nH]1 | 7.65 µM
COc1cccc(C=NNC(=O)c2[nH]nc3c2CCc2ccccc2-3)c1O | 9.65 µM
CC(C)C(=O)NC(=S)Nc1ccccc1C(=O)Nc1ccccc1 | 8.68 µM
O=C(N/N=C/c1ccccc1C(=O)O)C(=O)N/N=C/c1ccccc1C(=O)O | 39.3 µM
O=C(N/N=C/c1c(O)ccc2ccccc12)C(=O)N/N=C/c1c(O)ccc2ccccc12 | > 100 µM (inactive)
O=C(NNC(=S)NC(=O)c1ccccc1[N+](=O)[O-])c1ccccc1O | 15.3 µM
COc1cccc(C=NNC(=O)C(=O)NN=Cc2cccc(OC)c2O)c1O | 9.12 µM
O=C(N/N=C/c1cc(Br)ccc1O)C(=O)N/N=C/c1cc(Br)ccc1O | 11 µM
O=C(NC(=S)NNC(=O)c1ccccc1O)c1ccc(F)cc1 | 9.41 µM
O=C1Nc2ccc(Br)cc2C12NNc1ccccc1O2 (stereo unspecified) | 0.689 µM
OC(c1nc2ccc(F)cc2[nH]1)C(O)c1nc2ccc(F)cc2[nH]1 (stereo unspecified) | 6.78 µM
CCCCOc1ccc(/C=N/NC(=O)C(=O)N/N=C/c2ccc(OCCCC)cc2)cc1 | > 100 µM (inactive)
CC(=O)Nc1ccc(/C=N/NC(=O)C(=O)N/N=C/c2ccc(NC(C)=O)cc2)cc1 | > 100 µM (inactive)
Cc1cc(C(=O)NN=Cc2cc(Cl)cc([N+](=O)[O-])c2O)n[nH]1 | 13.6 µM
O=C(N/N=C/c1ccc(O)cc1)C(=O)N/N=C/c1ccc(O)cc1 | 43.9 µM
O=C(NN=Cc1c(O)ccc2ccccc12)c1[nH]ncc1Br | 9.64 µM
